Experimental data taken from patent US6417187B2, “1,2,4-triazole based compounds that can be used as insecticides or acaricides and processes” (Dow AgroSciences LLC, priority 2000, dated 2002).

Assays:
Type in all cases: in vivo
[1] = tested on: Brown Planthopper (Nilaparvata lugens); test: Insecticidal test for Brown Planthopper (rice seedling roots in test solution)
[2] = tested on: Green Leafhopper (Nephotettix cincticeps); test: Insecticidal test for Green Leafhopper (rice seedling roots in test solution)
[3] = tested on: Sweetpotato Whitefly (Bemisia tabacia); test: Insecticidal test for Sweetpotato Whitefly (cotton plant spray); conditions: 200 ppm spray on cotton plants, 13 days, reduction of large nymphs; for pest or weed control at 200 ppm: Bemisia, 312 h, read-out: WF: activity at 200 ppm against whitefly (% Control rating)
[4] = tested on: cotton aphid (Aphis gossvpii); test: Insecticidal test for cotton aphid (squash cotyledon spray); conditions: for pest or weed control at 50 ppm: 72 h, read-out: CA: activity at 50 ppm against cotton aphid (% Control rating)
[5] = tested on: beet armyworm (Spodoptera exigua); test: Insecticidal test for beet armyworm (treated lepidopteran diet); conditions: 400 ppm, treated diet, second-instar larvae, 5 days
[6] = 10 ppm test solution, rice seedling roots, 3rd instar nymphs, mortality at 6 days
[7] = 50 ppm spray on infested squash cotyledons, 3 days, population reduction versus untreated

Compound	BPH: activity at 10 ppm against brown planthopper (% Control rating) [1, 6]	GLH: activity at 10 ppm against green leafbopper (% Control rating) [2, 6]	CA: activity at 50 ppm against cotton aphid (% Control rating) [4, 7]	WF: activity at 200 ppm against whitefly (% Control rating) [3]	other results
CCC#Cc1sc(-c2nc(-c3c(F)cccc3Cl)nn2C)c(Cl)c1Cl [Compound 5]	F (less than 50)	F (less than 50)	–	–	pest or weed control at 200 ppm [3]: < 50%; pest or weed control at 50 ppm [4, 7]: 80 to 89%
Cc1ccncc1C#Cc1sc(-c2nc(-c3c(F)cccc3Cl)nn2C)c(Cl)c1Cl [Compound 21]	F (less than 50)	–	F (less than 50)	–	–
Cn1nc(-c2c(F)cccc2Cl)nc1-c1sc(C#Cc2cc(Cl)c(OCC(F)(F)F)c(Cl)c2)c(Cl)c1Cl [Compound 22]	F (less than 50)	F (less than 50)	F (less than 50)	D (60-69)	–
Cn1nc(-c2c(F)cccc2Cl)nc1-c1sc(C#Cc2ccccn2)c(Cl)c1Cl [Compound 33]	F (less than 50)	F (less than 50)	F (less than 50)	D (60-69)	–
C=C(C)C#Cc1sc(-c2nc(-c3c(F)cccc3Cl)nn2C)c(Cl)c1Cl [Compound 38]	–	–	D (60-69)	F (less than 50)	–
CC=CC#Cc1sc(-c2nc(-c3c(F)cccc3Cl)nn2C)c(Cl)c1Cl [Compound 39]	–	–	–	–	BPH: activity at 10 ppm against brown planthopper (% Control rating) ([1]; in vivo): F (key: A: 90-100; B: 80-89; C: 70-79; D: 60-69; E: 50-59; F: less than 50; G: inactive); GLH: activity at 10 ppm against green leafbopper (% Control rating) ([2]; in vivo): F (key: A: 90-100; B: 80-89; C: 70-79; D: 60-69; E: 50-59; F: less than 50; G: inactive); CA: activity at 50 ppm against cotton aphid (% Control rating) ([4]; in vivo): B (key: A: 90-100; B: 80-89; C: 70-79; D: 60-69; E: 50-59; F: less than 50; G: inactive)
Cc1ccnc(C#Cc2sc(-c3nc(-c4c(F)cccc4Cl)nn3C)c(Cl)c2Cl)c1 [Compound 43]	–	F (less than 50)	F (less than 50)	F (less than 50)	–
Cc1cccc(C#Cc2sc(-c3nc(-c4c(F)cccc4Cl)nn3C)c(Cl)c2Cl)n1 [Compound 44]	–	–	F (less than 50)	F (less than 50)	–
Cc1cccnc1C#Cc1sc(-c2nc(-c3c(F)cccc3Cl)nn2C)c(Cl)c1Cl [Compound 45]	F (less than 50)	F (less than 50)	F (less than 50)	F (less than 50)	–
Cc1cc(C#Cc2sc(-c3nc(-c4c(F)cccc4Cl)nn3C)c(Cl)c2Cl)ccn1 [Compound 57]	–	F (less than 50)	–	F (less than 50)	–
Cc1ccc(C#Cc2sc(-c3nc(-c4c(F)cccc4Cl)nn3C)c(Cl)c2Cl)nc1 [Compound 58]	F (less than 50)	F (less than 50)	F (less than 50)	F (less than 50)	–
Cn1nc(-c2c(F)cccc2Cl)nc1-c1sc(C#Cc2ccc(Br)cc2OC(F)(F)F)c(Cl)c1Cl [Compound 59]	F (less than 50)	F (less than 50)	F (less than 50)	F (less than 50)	–
Cn1nc(-c2c(F)cccc2Cl)nc1-c1sc(C#Cc2ccc(Cl)cn2)c(Cl)c1Cl [Compound 61]	F (less than 50)	F (less than 50)	F (less than 50)	F (less than 50)	–
Cn1nc(-c2c(F)cccc2Cl)nc1-c1sc(C#Cc2ccc(C(F)(F)F)cn2)c(Cl)c1Cl [Compound 62]	F (less than 50)	F (less than 50)	F (less than 50)	F (less than 50)	–
CCOc1ccc(C#Cc2ccc(-c3nc(-c4c(F)cccc4Cl)nn3C)s2)cc1 [Compound 66]	–	F (less than 50)	B (80-89)	F (less than 50)	–
Cn1nc(-c2c(F)cccc2Cl)nc1-c1ccc(C#Cc2ccccc2)s1 [Compound 68]	F (less than 50)	F (less than 50)	A (90-100)	F (less than 50)	–
Cn1nc(-c2c(F)cccc2Cl)nc1-c1ccc(C#Cc2ccccc2F)s1 [Compound 69]	–	F (less than 50)	E (50-59)	F (less than 50)	–
Cn1nc(-c2c(F)cccc2Cl)nc1-c1ccc(C#Cc2ccccc2)cc1 [Compound 70]	–	–	C (70-79)	F (less than 50)	–
CCCc1ccc(C#Cc2ccc(-c3nc(-c4c(F)cccc4Cl)nn3C)cc2)cc1 [Compound 71]	F (less than 50)	–	A (90-100)	F (less than 50)	–
CCCc1ccc(C#Cc2sc(-c3nc(C)nn3C)c(Cl)c2Cl)cc1 [Compound 75]	C (70-79)	F (less than 50)	F (less than 50)	F (less than 50)	–
CCCc1ccc(C#Cc2sc(-c3nc(-c4ccccc4F)nn3C)c(Cl)c2Cl)cc1 [Compound 76]	F (less than 50)	F (less than 50)	–	F (less than 50)	BAW: activity at 400 ppm against beet armyworm (% Control rating) [5]: A (90-100)
Cc1nc(-c2sc(C#Cc3ccc(F)cc3)c(Cl)c2Cl)n(C)n1 [Compound 78]	F (less than 50)	F (less than 50)	–	–	pest or weed control at 400 ppm ([5]; Spodoptera exigua, 120 h, read-out: BAW: activity at 400 ppm against beet armyworm (% Control rating)): 90 to 100%; pest or weed control at 200 ppm [3]: 60 to 69%; pest or weed control at 50 ppm [4, 7]: < 50%
Cn1nc(-c2ccccc2F)nc1-c1sc(C#Cc2ccc(F)cc2)c(Cl)c1Cl [Compound 79]	F (less than 50)	F (less than 50)	F (less than 50)	D (60-69)	–
CCCc1ccc(C#Cc2sc(-c3nc(-c4c(F)cccc4Cl)n[nH]3)c(Cl)c2Cl)cc1 [Compound 80]	–	–	–	F (less than 50)	–
COc1ccc(C#Cc2ccc(-c3nc(-c4c(Cl)cncc4Cl)nn3C)cc2)cc1 [Compound 88]	–	F (less than 50)	D (60-69)	F (less than 50)	–
COc1ccc(C#Cc2cccc(-c3nc(-c4c(Cl)cncc4Cl)nn3C)c2)cc1 [Compound 89]	–	F (less than 50)	B (80-89)	F (less than 50)	–
C#Cc1ccc(-c2nc(-c3c(F)cccc3Cl)nn2C)c(Cl)c1Cl [Compound 97]	–	–	–	–	pest or weed control at 200 ppm [3]: < 50%; pest or weed control at 50 ppm [4, 7]: 80 to 89%
